Data taken from paper PMC11555261, “Targeting USP11 regulation by a novel lithium-organic coordination compound improves neuropathologies and cognitive functions in Alzheimer transgenic mice” (EMBO Molecular Medicine, 2024).

Biological target: T1, USP11 (recombinant USP11 protein) (Homo sapiens, UniProt P51784)
T1 construct: commercial recombinant human protein from Sf9 insect cells; His tag implied by RED-tris-NTA labelling
Assay: microscale thermophoresis
Type: binding

T1 sequence (P51784 whole entry): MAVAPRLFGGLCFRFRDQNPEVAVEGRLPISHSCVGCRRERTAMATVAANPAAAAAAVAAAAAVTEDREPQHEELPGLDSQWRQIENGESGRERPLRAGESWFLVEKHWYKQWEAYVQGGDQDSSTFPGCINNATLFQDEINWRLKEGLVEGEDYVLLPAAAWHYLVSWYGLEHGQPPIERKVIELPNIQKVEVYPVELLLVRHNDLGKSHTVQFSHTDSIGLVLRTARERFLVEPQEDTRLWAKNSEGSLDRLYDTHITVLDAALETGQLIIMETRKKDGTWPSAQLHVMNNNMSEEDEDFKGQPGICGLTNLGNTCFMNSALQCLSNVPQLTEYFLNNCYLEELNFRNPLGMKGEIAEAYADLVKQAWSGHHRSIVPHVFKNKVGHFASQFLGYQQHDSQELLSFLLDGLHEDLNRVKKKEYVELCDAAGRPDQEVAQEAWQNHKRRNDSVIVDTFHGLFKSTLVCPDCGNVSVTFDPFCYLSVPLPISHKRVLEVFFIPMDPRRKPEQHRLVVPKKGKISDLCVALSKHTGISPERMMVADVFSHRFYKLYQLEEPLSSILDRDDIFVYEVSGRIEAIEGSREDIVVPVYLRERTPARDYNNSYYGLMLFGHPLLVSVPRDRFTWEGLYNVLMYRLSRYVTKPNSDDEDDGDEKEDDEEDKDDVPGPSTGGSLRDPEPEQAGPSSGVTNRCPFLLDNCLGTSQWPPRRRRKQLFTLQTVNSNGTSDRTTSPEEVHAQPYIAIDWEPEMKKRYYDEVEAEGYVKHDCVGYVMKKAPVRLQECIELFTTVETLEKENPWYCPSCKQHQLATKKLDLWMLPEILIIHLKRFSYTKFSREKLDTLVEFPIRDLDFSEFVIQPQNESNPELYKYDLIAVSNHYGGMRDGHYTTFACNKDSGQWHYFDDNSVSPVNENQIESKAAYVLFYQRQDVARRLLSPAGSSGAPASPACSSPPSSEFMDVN

Kd: 43.4 µM
SMILES: O=C(O)[C@@H]1CCCN1 [IsoLiPro]
